This data set in a line: Kinetics of MMF-release during incubation in intestinal fluid from the minipig (LC-MS quantification of MMF). The format is in vitro ADME, Gottingen SPF minipig. The following applies: diluted small intestinal fluid (1/20 v/v with 50 mM KH2PO4, pH 6.8), 37° C., samples at 0-120 min; FIG. 1; DMF as reference. How it is done:
Investigation and Comparision of the Kinetics of MMF-Release of the Different Compounds of the Present Invention and DMF During Incubation in Intestinal Fluid from the Minipig
Intestinal fluid samples were prepared at CiToxLAB Scantox A/S. The samples were taken from 1 female Gottingen SPF minipig from CiToxLAB Scantox A/S standard stock, originally obtained from Ellegaard Gottingen Minipigs A/S, DK-4261 Dalmose, Denmark. The minipig was 10 months old and the body weight was 21 kg. The minipig was identified by an individual number tagged to the pinna of one ear (animal number is documented in the raw data).
The minipig was fasted for approximately 28 hours before sampling of intestinal fluid. […]
Incubations were continued and in case the result of analysis of the 120 min indicated the presence of remaining intact MMF prodrug, additional samples were taken (t=360 or 420 min and at 1,260 or 1,320 min) and analysed.
The concentration/peak area ratio data pairs were subjected to regression analysis with 1/x weighting and the resulting calibration equation was used to quantify the MMF content in incubation samples.

SMILES strings stand for the structures.

Regarding `COC(=O)/C=C/C(=O)OCCN1CCN(CCOC(=O)/C=C/C(=O)OC)CC1` [Example 1, (E)-But-2-enedioic acid-2-{4-[2-((E)-3-methoxycarbonyl-acryloyloxy)-ethyl]-piperazin-1-yl}-ethyl ester methyl ester], the “hydrolysis to MMF (MMF release) compared with DMF” value is recorded as “substantially the same hydrolysis to MMF than DMF”.

Source of the values: patent US9663480B2, “BIS-MMF derivatives” (RATIOPHARM GMBH, priority 2013, dated 2017).
